Laboratory results as given in patent publication US7968596B2, “Preparation and diabetic use of Gibberellins” (Australian Biomedical Company Pty, Ltd., priority 2001, dated 2011).

Legend:
rats = settings: cited from earlier work
Human skin cell culture = experiment: Effect of Gibberellin A3 on cell growth compared to EGF in vitro (human skin cell culture, keratinocytes media); format: cell-based; settings: for Results: cell growth / cell division rate: five days
Procedure: Human skin cell culture experiments were conducted by using keratinocytes media. Each well was seeded with 1,500 cells. Incubation was carried out at 37° C. for a period of five days.

mice = settings: cited from earlier work
skin and eyes = settings: in vivo; cited from earlier work
Diabetic Rats = experiment: Effect on streptozotocin-induced diabetic rats (blood glucose, body weight); format: in vivo, Male Wistar rats; settings: for Blood glucose level after day 20th, 2 hours: 2 hours after administration; for Blood glucose level after day 20th, 5 hours: 5 hours after administration
Procedure: Male Wistar rats (290 g˜330 g) were weighed and lightly anaesthetized (4% halothane, 2:1 O2/N2O) so that blood glucose levels could be measured via a tail vein sample, using a Precision Q.I.D. glucometer. Diabetes was then induced by a single tail vein injection of streptozotocin (STZ, 60 mg/kg), which was dissolved immediately prior to use in citrate buffer (50 mM citric acid and 50 mM trisodium citrate; pH 4.5). An equivalent volume of citrate buffer was injected into age-matched control rats.
Rats were housed in groups of two during the experiment. Animal house temperature was maintained at 20° C. (±2° C.) with a 12 hour light/dark cycle, and rats were allowed free access to food and water.
Forty-eight hours after the administration of STZ (60 mg/kg), a blood glucose sample was taken and animals with blood glucose levels≧16 mM were considered to be diabetic. Rats were then randomly divided into groups. The slow-acting, Lente Monotard insulin was used and Gibberellin sodium salt was made up as required in distilled water immediately prior to use. Blood glucose readings were obtained two hours or 5 hours after the administration of drug(s) every three days.

[1] = Keratinocyte medium containing no EGF, but containing Gibberellin A3 (5 μg/ml)
[2] = Perfect keratinocyte medium (containing EGF) plus Gibberellin A3 (5 μg/ml)
[3] = Group 1: Insulin 4 unit/rat sub-cutaneous daily
[4] = Group 2: Insulin 2 unit/rat sub-cutaneous daily

Molecule	acute oral LD50 (rats) [g/kg]	effect of presence of both EGF and Gibberellin A3 on the rate of cell growth (Human skin cell culture; Experiment 3.2, EGF plus Gibberellin A3 5 μg/ml)	stimulation of cell growth by Gibberellin A3 alone, compared to EGF (Human skin cell culture; Experiment 3.4, no EGF, Gibberellin A3 5 μg/ml)	Results: cell growth (Human skin cell culture; [1])	cell division rate (Human skin cell culture; [1])	Results: cell growth (Human skin cell culture; [2])	cell division rate (Human skin cell culture; [2])	acute oral LD50 (mice) [g/kg]	irritation to skin and eyes (skin and eyes)	Body weight change on the 30th day (Diabetic Rats; [3])	Blood glucose level after day 20th, 2 hours (Diabetic Rats; Group 1: Insulin 4 unit/rat sub-cutaneous daily, STZ diabetic rats)	Blood glucose level after day 20th, 5 hours (Diabetic Rats; [3])	Body weight change on the 30th day (Diabetic Rats; [4]) [%]	Blood glucose level after day 20th, 2 hours (Diabetic Rats; [4])	Blood glucose level after day 20th, 5 hours (Diabetic Rats; [4])
C=C1C[C@]23C[C@@]1(O)CC[C@H]2[C@@]12C=C[C@H](O)[C@@](C)(C(=O)O1)[C@H]2[C@@H]3C(=O)O [Gibberellin A3]	6.3	no additive effect	as effectively as EGF	Very good growth (cell	division rate = 100)	Very good growth (cell	division rate = 100)	> 15	non-irritating	–	–	–	–	–	–
Insulin: slow-acting, Lente Monotard insulin	–	–	–	–	–	–	–	–	–	+8%	4~5 mM	3~5 mM	−8	15~18 mM	14~16 mM
